Data: patent US20230365568A1, “PLK1 POLO BOX DOMAIN INHIBITORS AND METHOD OF TREATING CANCER” (The United States of America,as represented by the …, priority 2020, published 2023)
Where two headings read alike, the source gives them in different places. Values belong to the compound of their own block, whether it stands above or below them.

Experiments:
[1] = system: CYP3A; test: Mouse liver microsome assay with CYP-specific inhibitors; type: in vitro ADME; details: mouse liver microsomes
Method: In Vitro MLM Assay. Incubations of the mouse liver microsome (MLM) samples were performed in duplicate. Reactions (200 μL final volume) were conducted in 50 mM potassium phosphate buffer, 3 mM MgCl2 (pH 7.4), 1 mg/mL MLM protein, and 2.5 μM test compound with or without 50 μM inhibitor. The mixture was preincubated at 37° C. for 3 min and initiated with 4 mM NADPH. At the serial time of the incubation, 20 μL of the mixture was added to ice-cold 80 μL of 90% acetonitrile including 4 μM of 4 followed by a 25 min incubation on ice and centrifugation at 14,000×g for 10 min. 40 μL of supernatant was diluted with 20 μL of water, and a 5 μL aliquot was injected into the UPLC-QTOF system.
To evaluate metabolic stability information, S-methyl 51 and 5-thio-1-methyl-4-nitroimidazolyl 73 prodrugs were administered orally in male C57BL/6 mice via gavage 50 mg/kg or 20 mg/kg, respectively. […] The AUCs of 14 were 523,200 mg-h/L and 317,600 mg-h/L in 50 mg/kg and 20 mg/kg doses, respectively. Compound 14 was further metabolized by glucuronidation. […] The presence of the 9-F group impeded the hydroxylation, compared to the PK studies in Alverez et al. (J. Med. Chem. 63, 14087-14117 (2020)).

[2] = Aqueous solubility; details: aqueous solubility
[3] = Microsomal metabolic stability, rat liver microsomes (RLM); details: rat liver microsomes
[4] = in vitro; details: PAMPA
[5] = system: HeLa cells; details: cancer cells in vitro; Alverez et al., 2020; cited from earlier work
[6] = molecular target: PBD of Plk1 (Homo sapiens (Human), UniProt P53350); details: Gunasekaran et al., 2020; cited from earlier work
Sequence of PBD of Plk1 (P53350 326-603): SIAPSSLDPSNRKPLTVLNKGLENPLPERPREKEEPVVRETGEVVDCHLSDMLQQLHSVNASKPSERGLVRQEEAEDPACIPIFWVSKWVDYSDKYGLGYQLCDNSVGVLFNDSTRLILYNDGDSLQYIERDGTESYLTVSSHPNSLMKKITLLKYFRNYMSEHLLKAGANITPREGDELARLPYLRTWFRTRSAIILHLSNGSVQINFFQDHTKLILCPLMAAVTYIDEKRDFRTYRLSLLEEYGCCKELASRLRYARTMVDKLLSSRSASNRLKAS

[7] = rat, microsomes

Compound: Cc1noc(C)c1C=CC(=O)NCCCn1c(=O)c2cc(F)ccc2n2c(=S)[nH]nc12 [compound 121, 3-(3,5-dimethylisoxazol-4-yl)-N-(3-(7-fluoro-5-oxo-1-thioxo-1,2-dihydro-[1,2,4]triazolo[4,3-a]quinazolin-4(5H)-yl)propyl)propenamide]
Papp [4]: 27.6 ×10⁻⁶ cm/s

Compound: CSc1nnc2n(CCc3ccccc3)c(=O)c3ccccc3n12 [Example 6, 1-(methylthio)-4-phenethyl-[1,2,4]triazolo[4,3-a]quinazolin-5(4H)-one]
concentration required to induce mitotic arrest and affect proliferation [5]: > 100 µM

Compound: CNc1ccc(C(=O)NCCn2cc(C=C3C(=O)NC(=O)NC3=O)c(-c3ccccc3)n2)cc1 [KBJK557]
cross-reactivity among Plk1-3 PBDs [6]: considerable cross-reactivities among Plk1-3 PBDs

Results, then the compound that gave them:

sensitivity of conversion to 14 to ketoconazole (CYP3A inhibitor) [1]: refractory to ketoconazole treatment
PAMPA: 18.0 ×10⁻⁶ cm/s
Solub. [2]: >50 µg/mL
t1/2 (min, RLM) [3]: >30 min
Compound: CC(=O)NCCCn1c(=O)c2cc(F)ccc2n2c(=S)[nH]nc12 [compound 73]

t1/2 (min, RLM) [7]: >30 min
Compound: 7-fluoro-4-(2-(piperidin-1-yl)ethyl)-1-thioxo-2,4-dihydro-[1,2,4]triazolo[4,3-a]quinazolin-5(1H)-one [Example 49]
